{"source": "patent US20260232554A1", "about": "“ORAL CARE AGENT WITH DIMETHYLGLYCINE” (Dr. Kurt Wolff GmbH & Co. KG, priority 2023, published 2026)", "type_in_all_cases": "cell-based, human", "key": {"HaCaT cells [1]": {"test_system": "HaCaT cells", "assay": "MTT assay, cell viability", "conditions": "after 48 h and 72 h of cultivation, versus control without DMG", "method": "(§1) As part of an in vitro study, the effect of sodium dimethylglycinate was investigated in a cell culture model with human keratin-forming keratinocyte cells. For this purpose, HaCaT cells were cultured for 1, 3, 5 and 7 days in DMEM medium (including fetal calf serum and an antibiotic-antimycotic mix) and the viability, proliferation and migration of the cells were determined using suitable measurement methods and the expression of growth factors relevant for cell growth was determined.\nFor this measurement, a so-called MTT assay was used to determine cellular metabolic activity as an indicator of cell viability and cytotoxicity. This colorimetric assay is based on the reduction of a yellow tetrazolium salt (3-(4,5-dimethylthiazol-2-yl)-2,5-diphenyltetrazolium bromide or MTT) to purple formazan crystals by metabolically active cells.\n(§2) Human epidermal keratinocyte cells (HaCaT) were seeded in a 96-well plate at a cell density of 5,000 cells/well and cultured in medium (DMEM with 10% FBS, 1% penicillin-streptomycin, 0.5% fungizone). On the next day and after a further 24 h, 48 h and 72 h of cultivation at 37° C. and 5 vol. % CO2, the cell culture medium without (control) or with the respective concentrations of sodium dimethylglycinate (DMG) already contained was changed. […]"}, "HaCaT cells [2]": {"test_system": "HaCaT cells", "assay": "wound healing assay, migration", "conditions": "images after 16 h, 20 h and 24 h, different DMG concentrations, versus control without DMG", "method": "as §1\nA so-called wound healing assay was used to measure migration, based on previously published studies in T. Kawabata, T. Otsuka, K. Fujita, G. Sakai, R. Matsushima-Nishiwaki, O. Kozawa, H. Tokuda, International journal of molecular medicine 2018, 42, 3149-3156. The principle is based on measuring the migration of cells to a not yet colonized cultivation surface over time. For this purpose, 20,000 cells each were seeded into two adjacent wells or cavities separated by a silicone insert (with standardized width) and cultivated in medium (DMEM with 5% FBS, 1% penicillin-streptomycin, 0.5% fungizone) for 48 h at 37° C. and 5 vol % CO2. The plastic insert was then removed (“creation of the wound”) and the migration of the cells was documented by determining the cultivation surface not colonized with cells over time using images. […]"}, "VEGF": {"test_system": "VEGF", "assay": "VEGF gene expression by qRT-PCR", "conditions": "HaCaT; after 24 h of cultivation; versus control without DMG", "method": "VEGF (vascular endothelial growth factor) promotes the growth and formation of new blood and lymph vessels. Gene expression was measured using a standard method known as quantitative real-time PCR (qRT-PCR).\nHuman epidermal keratinocyte cells (HaCaT) were seeded in a 6-well plate at a cell density of 140,000 cells/well and cultured in medium (DMEM with 10% FBS, 1% penicillin-streptomycin, 0.5% fungizone) at 37° C. and 5 vol % CO2. On the next day, the cell culture medium without (control) or with the respective concentrations of active substance already contained was changed and the cells were harvested after 24 hours. Gene expression was measured using qRT-PCR based on previously published studies in B. V. Diaz, M.-C. Lenoir, A. Ladoux, C. Frelin, M. Demarchez, S. Michel, Journal of Biological Chemistry 2000, 275, 642-650."}, "HaCaT cells [3]": {"test_system": "HaCaT cells", "assay": "CyQUANT assay, cell proliferation", "conditions": "after 48 h and 72 h of cultivation, versus control without DMG", "method": "as §1\nA so-called CyQUANT assay was used to measure proliferation. In this fluorescence-based assay, the fluorescent dye used binds to DNA (deoxyribonucleic acid), whereby the content of cellular DNA is a direct measure of the number of cells within a sample.\nas §2, with “active substance” for “sodium dimethylglycinate (DMG)”"}, "Interleukin-6 (IL-6)": {"test_system": "Interleukin-6 (IL-6)", "assay": "IL-6 gene expression by qRT-PCR after cytokine-induced inflammation", "conditions": "HaCaT; 25 ng/ml TNFα and 25 ng/ml IFNγ; DMG 0.005%-0.00005%; 24 h; versus positive control of inflammation induction", "method": "Interleukin-6 (IL-6) is a peptide hormone of the immune system from the group of pro-inflammatory interleukins and plays a key role in the non-specific, innate immune response. Gene expression was measured using a standard method known as quantitative real-time PCR (qRT-PCR).\nHuman epidermal keratinocyte cells (HaCaT) were seeded in a 6-well plate at a cell density of 140,000 cells/well and cultured in medium (DMEM with 10% FBS, 1% penicillin-streptomycin, 0.5% fungizone) at 37° C. and 5 vol % CO2. On the next day, cytokine treatment (25 ng/ml tumor necrosis factor-alpha (TNFα) and 25 ng/ml interferon-gamma (IFNγ)) was used to induce cell inflammation. […] with the different DMG drug concentrations (inflammation induction+DMG 0.005%−0.00005%) or without DMG (positive control of inflammation induction). In parallel, cells were treated without any treatment (control) or only with the different DMG drug concentrations (DMG 0.005%−0.00005%) and the cells were harvested after 24 h for gene expression analysis. Gene expression was measured using qRT-PCR based on previously published studies in B. V. Diaz, M.-C. Lenoir, A. Ladoux, C. Frelin, M. Démarchez, S. Michel, Journal of Biological Chemistry 2000, 275, 642-650."}}}
{"smiles": "CN(C)CC(=O)[O-].[Na+]", "note": "[DMG, sodium dimethylglycinate]", "values": [{"measurement": "cell viability (MTT, absorption normalized to control at 24 h)", "setting": "HaCaT cells [1]", "result": "clear increase"}, {"measurement": "migration or wound closure", "setting": "HaCaT cells [2]", "result": "significantly faster"}, {"measurement": "relative gene expression of VEGF (normalized to GAPDH)", "setting": "VEGF", "result": "significant increase"}, {"measurement": "cell proliferation (CyQUANT, fluorescence normalized to control at 24 h)", "setting": "HaCaT cells [3]", "result": "clear increase"}, {"measurement": "expression of interleukin-6 induced by cytokine treatment", "setting": "Interleukin-6 (IL-6)", "result": "dose-dependently reduced"}]}
